Test results from US9834564B2, “Substituted quinolines as PDE-10 inhibitors” (priority 2010, dated 2017).

Each compound was assayed against recombinant human PDE-10 enzyme (PDE-10A) (Homo sapiens (Human), UniProt Q9Y233) (assay: IMAP PDE Fluorescence Polarization assay, human PDE-10 inhibition (enzyme assay)). Details: not given.
Assay type: biochemical
Description: In one embodiment, the compounds provided herein were assayed for their ability to inhibit human PDE-10A. In one embodiment, the activities of the compounds were determined using the Molecular Devices IMAP PDE Fluorescence Polarization assay using recombinant human PDE-10 enzyme expressed in a baculoviral system. Briefly, 10 μL of a compound (0.2 nM-20 μM) was added to either a 96-well half area black plate or a 384-well black plate along with 10 μL of Fluorescein-labeled cAMP/cGMP substrate as per manufacturer's instructions and 10 μL of PDE enzyme (activity 0.1 U). Following a 40-minute incubation at 37° C., 60 μL of IMAP binding reagent was added. […] The data was analyzed using Prism Software (GraphPad Inc, San Diego, Calif.).

Sequence of recombinant human PDE-10 enzyme (PDE-10A) (Q9Y233 whole entry): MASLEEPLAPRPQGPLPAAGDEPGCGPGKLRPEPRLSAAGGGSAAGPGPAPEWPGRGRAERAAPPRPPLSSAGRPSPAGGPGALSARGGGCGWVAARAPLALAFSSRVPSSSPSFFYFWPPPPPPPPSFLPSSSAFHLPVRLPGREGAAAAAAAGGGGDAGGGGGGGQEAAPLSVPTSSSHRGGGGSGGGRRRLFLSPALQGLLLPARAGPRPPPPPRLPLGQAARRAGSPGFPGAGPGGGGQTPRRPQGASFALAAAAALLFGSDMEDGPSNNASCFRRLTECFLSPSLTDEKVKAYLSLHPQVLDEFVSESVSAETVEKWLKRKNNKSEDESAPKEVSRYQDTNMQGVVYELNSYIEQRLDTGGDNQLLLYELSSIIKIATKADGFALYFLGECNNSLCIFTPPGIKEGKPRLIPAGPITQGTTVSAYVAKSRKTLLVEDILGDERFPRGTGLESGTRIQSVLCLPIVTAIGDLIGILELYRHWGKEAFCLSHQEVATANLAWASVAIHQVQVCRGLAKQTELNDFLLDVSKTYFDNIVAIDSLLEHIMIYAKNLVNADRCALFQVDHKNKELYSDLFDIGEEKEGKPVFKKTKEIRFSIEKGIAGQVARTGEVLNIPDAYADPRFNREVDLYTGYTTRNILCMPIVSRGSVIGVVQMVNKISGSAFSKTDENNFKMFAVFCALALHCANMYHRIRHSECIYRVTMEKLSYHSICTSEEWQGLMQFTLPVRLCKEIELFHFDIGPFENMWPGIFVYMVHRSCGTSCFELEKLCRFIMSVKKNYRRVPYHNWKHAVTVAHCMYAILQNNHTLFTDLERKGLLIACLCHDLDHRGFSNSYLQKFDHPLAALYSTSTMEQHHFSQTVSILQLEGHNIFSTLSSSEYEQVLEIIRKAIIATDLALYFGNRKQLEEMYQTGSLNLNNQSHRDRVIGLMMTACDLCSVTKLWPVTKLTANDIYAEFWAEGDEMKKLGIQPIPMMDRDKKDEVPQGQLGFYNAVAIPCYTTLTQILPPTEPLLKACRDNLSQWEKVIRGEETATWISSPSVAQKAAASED

Row | SMILES | IC50 [nM]
1 | Cn1c(/C=C/c2nc(-c3ccccc3)c[nH]2)nc2ccccc2c1=O [Compound 9] | > 10000

Same assay, conditions: recombinant human PDE-10, fluorescein-labeled cAMP/cGMP substrate, 40 min at 37° C.

Row | SMILES | IC50 [nM]
2 | Cn1c(CCc2cnc3ccccc3n2)nc2c3ncccc3ccc21 [Compound 154] | < 500
3 | Cc1cnc(C)c(CCc2nc3c4cccnc4ccc3n2C)n1 [Compound 205] | < 500
4 | FC(F)(F)c1cnc2nc(CCc3nc4c5cccnc5ccn4n3)ccc2c1 [Compound 182] | > 10000
5 | Cc1ncc(C)n2nc(CCc3ccc4ccc5cccnc5c4n3)nc12 [Compound 133] | < 500
6 | Cc1ncc(CCc2nc(-c3cccnc3)cn2C)nc1C [Compound 175] | 1000 to 10000
7 | c1cnc2ccc(CCc3nc4c5cccnc5ccn4n3)nc2c1 [Compound 176] | < 500
8 | c1ccc2nc(CCc3nc4c(ccc5ncccc54)[nH]3)ccc2c1 [Compound 86] | < 500
9 | Cn1c(CCc2nc(C(F)(F)F)cc(C(F)(F)F)n2)nc2c3cccnc3ccc21 [Compound 194] | < 500
10 | Cn1c(CCc2ccc3cccnc3n2)nc2c3cccnc3ccc21 [Compound 203] | < 500
11 | O=c1[nH]c(CCc2cc(-c3ccccc3)n[nH]2)nc2ccccc12 [Compound 14] | 1000 to 10000
12 | c1ccc2nc(CCc3nc4c5cccnc5ccn4n3)ccc2c1 [Compound 147] | < 500
13 | Cn1c(CCc2ccc3cnccc3n2)nc2c3ncccc3ccc21 [Compound 163] | < 500
14 | Cn1c(CCc2cnc3ccccc3n2)nc2c3cccnc3ccc21 [Compound 84] | < 500
15 | c1ccc2nc(CCc3nc4ccccc4s3)cnc2c1 [Compound 117] | 1000 to 10000
16 | Cc1ccc2nc(CCc3nc4c(C)ncc(C)n4n3)cnc2c1C [Compound 136] | < 500
17 | Cc1ncc(C)n2nc(CCc3ccc4ccc(F)c(F)c4n3)nc12 [Compound 131] | < 500
18 | Cn1c(CCc2cnc3c(C(F)(F)F)ccc(C(F)(F)F)c3n2)nc2c3cccnc3ccc21 [Compound 143] | < 500
19 | Fc1cccc(-c2c[nH]c(CCc3ccc4ccccc4n3)n2)c1F [Compound 71] | 500 to 1000
20 | Cc1ccc2ccc(CCc3nc4c5cccnc5ccn4c3C)nc2n1 [Compound 198] | 500 to 1000
21 | Cn1c(CCc2ccc3ccccc3n2)nc2ccc3ccccc3c21 [Compound 91] | 1000 to 10000
22 | c1ccc(-c2c[nH]c(CCc3ccccn3)n2)cc1 [Compound 33] | > 10000
23 | Cc1ncc(C)c2nc(CCc3nc4c5ncccc5ccc4n3C)ccc12 [Compound 164] | < 500
24 | Cc1ccc2nc(CCc3cn4ccc5ncccc5c4n3)ccc2n1 [Compound 200] | < 500

Row | SMILES | IC50 [nM]
25 | Cc1ccc(C)c2nc(CCc3nc4c(ccc5ncccc54)[nH]3)cnc12 [Compound 87] | < 500
26 | Cc1ncc(C)n2nc(CCc3ccc4ccc5nccnc5c4n3)nc12 [Compound 141] | < 500
27 | COc1cccc2ccc(CCc3nc4c5cccnc5ccc4n3C)nc12 [Compound 161] | < 500
28 | COc1cc2nc(CCc3nc(-c4ccccc4)c[nH]3)[nH]c(=O)c2cc1OC [Compound 7] | > 10000
29 | Cc1ncc(C)n2nc(CCc3ccc4c(F)ccc(F)c4n3)nc12 [Compound 129] | 500 to 1000
30 | Cc1nc(CCc2nc3c4cccnc4ccc3n2C)nc2ccccc12 [Compound 209] | < 500
31 | c1ccc(-c2c[nH]c(CCc3cccs3)n2)cc1 [Compound 29] | > 10000
32 | Cc1cnc2nc(CCc3nc4c5cccnc5ccn4n3)ccc2c1 [Compound 180] | < 500
33 | Cn1c(CCc2nc(-c3ccccc3)c[nH]2)nc2ccccc2c1=O [Compound 10] | 1000 to 10000
34 | Cn1nc(-c2ccccc2)cc1CCc1nc2ccccc2c(=O)[nH]1 [Compound 15] | 1000 to 10000
35 | c1ccc2nc(CCc3nc(-c4ccncc4)c[nH]3)cnc2c1 [Compound 74] | 1000 to 10000
36 | Cn1cc(-c2ccccc2)nc1CCc1cccc(C(N)=O)n1 [Compound 151] | > 10000
37 | C(=C\c1nc(-c2ccccc2)c[nH]1)/c1ccccn1 [Compound 32] | > 10000
38 | COc1cc2nc(CCc3cnc4ccccc4n3)[nH]c2cc1OC [Compound 96] | 1000 to 10000
39 | Cc1ccc(-c2cn(C)c(CCc3ccc4ncccc4n3)n2)cn1 [Compound 174] | 500 to 1000
40 | Cc1c(CCc2cnc3ccccc3n2)nc2c3cccnc3ccn12 [Compound 190] | < 500
41 | Cn1c(CCc2cccc(-c3cccnc3)n2)nc2c3cccnc3ccc21 [Compound 207] | 1000 to 10000
42 | Cc1ccc2ccc(CCc3nc4c(C)ncc(C)n4n3)nc2c1C [Compound 128] | < 500
43 | CC(C)(C)c1ccc2nc(CCc3cnc4ccccc4n3)[nH]c2c1 [Compound 100] | 1000 to 10000
44 | c1ccc2nc(CCc3nc4cc5c(cc4[nH]3)OCO5)cnc2c1 [Compound 98] | 1000 to 10000
45 | O=c1[nH]c(CCc2ccc(-c3ccccc3)s2)nc2ccccc12 [Compound 37] | > 10000
46 | Cn1c(CCc2ccc3ccccc3n2)nc2ccccc21 [Compound 25] | 1000 to 10000
47 | COc1cccc2ccc(CCc3nc4c5ncccc5ccc4n3C)nc12 [Compound 160] | 500 to 1000

Row | SMILES | IC50 [nM]
48 | c1ccc(-c2ncc(CCc3cnc4ccccc4n3)o2)cc1 [Compound 80] | > 10000
49 | Fc1cnc2nc(CCc3nc4c5cccnc5ccn4n3)ccc2c1 [Compound 181] | < 500
50 | Cn1c(CCc2cnc3ccccc3n2)nc2ccccc21 [Compound 26] | 1000 to 10000
51 | c1ccc2nc(CCc3cn4ccccc4n3)cnc2c1 [Compound 119] | 1000 to 10000
52 | c1coc(-c2c[nH]c(CCc3ccc4ccccc4n3)n2)c1 [Compound 66] | 500 to 1000
53 | c1ccc(-c2c[nH]c(SCc3cnc4ccccc4n3)n2)cc1 [Compound 122] | > 10000
54 | O=c1[nH]c(CCc2nc(-c3ccc(Cl)cc3)c[nH]2)nc2ccccc12 [Compound 54] | 1000 to 10000
55 | Cc1ncc(C)n2nc(CCc3ccc4ccc5ccccc5c4n3)nc12 [Compound 130] | 500 to 1000
56 | Cn1cc(-c2ccccc2)nc1CCc1cccc(-n2ccnc2)n1 [Compound 150] | 1000 to 10000
57 | Cc1ncc(C)n2nc(CCc3ccc4cccnc4n3)nc12 [Compound 138] | < 500
58 | Cc1ncc(C)n2nc(CCc3nc4ccccc4cc3F)nc12 [Compound 127] | < 500
59 | Cc1ncc(C)c2nc(CCc3nc4c5cccnc5ccc4n3C)ccc12 [Compound 165] | < 500
60 | Fc1cc2[nH]c(CCc3cnc4ccccc4n3)nc2cc1Cl [Compound 101] | 500 to 1000
61 | Cn1c(CCc2cnc3ccccc3n2)nc2ccc3ncccc3c21 [Compound 83] | 1000 to 10000
62 | Cc1ncc(C)n2nc(CCc3ccc4ccc(Cl)c(Cl)c4n3)nc12 [Compound 132] | 500 to 1000
63 | Cn1c(CCc2ccc3ccccc3n2)nc2c3cccnc3ccc21 [Compound 85] | < 500
64 | O=c1[nH]c(CCc2nc3ccccc3o2)nc2ccccc12 [Compound 109] | > 10000
65 | Cc1c(CCc2ccc3cc(F)cnc3n2)nc2c3cccnc3ccn12 [Compound 183] | < 500
66 | Cc1c(CCc2ccc3ncccc3n2)nc2c3cccnc3ccn12 [Compound 201] | < 500
67 | c1ccc2nc(CCc3nc(-c4ccncc4)c[nH]3)ccc2c1 [Compound 68] | 1000 to 10000
68 | c1ccc(-c2nc(CCc3cnc4ccccc4n3)n3c2CCCC3)cc1 [Compound 114] | < 500
69 | O=c1[nH]c(CCc2nc(-c3ccccc3C(F)(F)F)c[nH]2)nc2ccccc12 [Compound 62] | 1000 to 10000
70 | c1ccc2nc(CCc3nc4ccccc4o3)cnc2c1 [Compound 107] | > 10000

Row | SMILES | IC50 [nM]
71 | Cc1ncc(C)n2nc(CCc3ccc4ccc5c(c4n3)NCCO5)nc12 [Compound 168] | 1000 to 10000
72 | Cc1ccc(C)c2nc(CCc3nc4ccc5ncccc5c4n3C)cnc12 [Compound 89] | < 500
73 | c1cnc2ccc(CCc3cn4ccc5ncccc5c4n3)nc2c1 [Compound 199] | < 500
74 | FC(F)(F)c1ccc2[nH]c(CCc3cnc4ccccc4n3)nc2c1 [Compound 104] | 1000 to 10000
75 | COc1cccc2ccc(CCc3ccc4ccc5cccnc5c4n3)nc12 [Compound 162] | 1000 to 10000
76 | O=c1[nH]c(CCc2nc(-c3cc4ccccc4o3)c[nH]2)nc2ccccc12 [Compound 53] | 1000 to 10000
77 | Cn1c(CCc2ccc3ccc4cccnc4c3n2)nc2c3cccnc3ccc21 [Compound 171] | < 500
78 | Cc1cnc(C)n2nc(CCc3ccc4ccccc4n3)nc12 [Compound 126, 2-(2-(5,8-Dimethyl-[1,2,4]triazolo[1,5-c]pyrimidin-2-yl)ethyl)quinoline] | < 500
79 | Cn1cc(-c2cccc(F)c2F)nc1CCc1ccc2ccccc2n1 [Compound 44] | 500 to 1000
80 | Cc1ccnc2ccc(CCc3nc4c5cccnc5ccc4n3C)nc12 [Compound 186] | < 500
81 | O=c1[nH]c(CCc2nc(-c3ccccc3)c[nH]2)nc2cc3ccccc3cc12 [Compound 6] | > 10000
82 | c1ccc2nc(CCc3nc4c5cccnc5ccn4n3)cnc2c1 [Compound 188] | < 500
83 | Cn1cc(-c2ccncc2)nc1CCc1ccc2ccccc2n1 [Compound 41] | 1000 to 10000
84 | Cc1cc2c(nc(CCc3ccc4ccccc4n3)n2C)c2cccnc12 [Compound 169] | > 10000
85 | O=c1[nH]c(CCc2nc(-c3ccc(-c4ccccc4)cc3)c[nH]2)nc2ccccc12 [Compound 63] | > 10000
86 | O=c1[nH]c(CCn2cnc(-c3ccccc3)c2)nc2ccccc12 [Compound 27] | 1000 to 10000
87 | c1cnc2nc(CCc3cn4ccc5ncccc5c4n3)ccc2c1 [Compound 195] | 1000 to 10000
88 | O=c1[nH]c2ccccc2nc1CCc1nc(-c2ccccc2)c[nH]1 [Compound 2] | < 500
89 | O=c1[nH]c(CCc2nc3ccccc3[nH]2)nc2ccccc12 [Compound 21] | 1000 to 10000
90 | Cc1cnc2nc(CCc3nc4c5cccnc5ccn4c3C)ccc2c1 [Compound 184] | < 500
